pIC50: −log10 of the molar value.
Target: T1, dopamine autoreceptor (Rattus norvegicus, UniProt P61169)
T1 construct: homogenized rat striatal brain tissue; from tissue; host or cells: rat striatal brain tissue homogenate
Assay: Dopamine autoreceptor affinity, 3H-quinpirole binding in homogenized rat striatal brain tissue
Conditions: for Ratio ant/agonist: ratio of D2 Spiper IC50 to D2 Quin. IC50 (LowAg/HighAg, predicts intrinsic activity)
Procedure: Affinity for the dopamine autoreceptor was established by a modification of the standard experimental test procedure of Seemen and Schaus, European Journal of Pharmacology 203, 105-109 (1991), wherein homogenized rat striatal brain tissue is incubated with ^3H-quinpirole (Quin.)and various concentrations of test compound, filtered and washed and counted in a Betaplate scintillation counter.

T1 sequence (P61169 whole entry): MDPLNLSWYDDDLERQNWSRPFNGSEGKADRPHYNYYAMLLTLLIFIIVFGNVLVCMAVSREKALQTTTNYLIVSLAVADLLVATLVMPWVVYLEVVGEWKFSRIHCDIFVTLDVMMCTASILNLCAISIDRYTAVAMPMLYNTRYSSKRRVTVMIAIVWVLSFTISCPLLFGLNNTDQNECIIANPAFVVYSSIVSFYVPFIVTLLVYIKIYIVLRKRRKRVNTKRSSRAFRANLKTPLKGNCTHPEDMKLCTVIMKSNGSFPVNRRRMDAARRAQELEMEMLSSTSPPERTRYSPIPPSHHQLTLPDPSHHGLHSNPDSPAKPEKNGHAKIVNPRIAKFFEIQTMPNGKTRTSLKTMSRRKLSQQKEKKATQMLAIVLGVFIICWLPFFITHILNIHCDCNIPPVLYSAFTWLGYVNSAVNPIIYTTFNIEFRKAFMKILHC

c1ccc(CCCCNCCOc2cccc3[nH]ccc23)cc1 [(1a), [2-(1H-Indol-4-yloxy)-ethyl]-(4-phenyl-butyl)-amine]
pIC50: 7.98
Ratio ant/agonist: 18

Clc1ccc(OCCNCc2ccccc2)c2cc[nH]c12 [(1b), Benzyl-[2-(7-chloro-1H-indol-4-yloxy)-ethyl]-amine]
pIC50: 7.83
Ratio ant/agonist: 12

Clc1ccc(OCCNCc2ccccc2)c2c(Cl)c[nH]c12 [(1c), Benzyl-[2-(3,7-dichloro-1H-indol-4-yloxy)-ethyl]-amine]
pIC50: 7.87
Ratio ant/agonist: 21

Clc1ccc(OCCNCc2cccs2)c2c(Cl)c[nH]c12 [(1f), Thien-2-ylmethyl-[2-(3,7-dichloro-1H-indol-4-yloxy)-ethyl]-amine]
pIC50: 7.65
Ratio ant/agonist: 18

Clc1c[nH]c2cccc(OCCNCCCCc3ccccc3)c12 [(2a), [2-(3-Chloro-1H-indol-4-yloxy)-ethyl]-(4-phenyl-butyl)-amine]
pIC50: 8.02
Ratio ant/agonist: 20

O=C(c1c[nH]c2cccc(OCCNCc3ccccc3)c12)C(F)(F)F [(3a), 1-[4-(2-Benzylamino-ethoxy)-1H-indol-3-yl]-2,2,2-trifluoro-ethanone]
pIC50: 8.23
Ratio ant/agonist: 48

c1ccc(CNCCOc2cccc3[nH]ccc23)cc1 [(3b), N-Benzyl-[2-(1H-indol-4-yloxy)]-ethylamine]
pIC50: 7.71
Ratio ant/agonist: 26
